Measured values taken from the supplement of paper PMC10307832.

Legend:
Assay in all cases: relative viability (nuclei count vs DMSO), 5 days (fraction); higher = more cells survive
[1] = tested on: NCI-H1793
Summary of the method: (§1)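 Cells from lung cancer lines were seeded into 1536-well plates and, one day later, dosed by pin tool. Treatments were either a single drug or a fixed dose of an anchor drug with five library-drug doses (not always all listed) in √10 steps. After 5 days, nuclei were stained in a one-step fixation (final 0.05% Triton X-100, 1% formaldehyde, 1 ug/ml Hoechst) and counted on 4× images, and relative viability is the treated-to-vehicle nuclei ratio, as the median of duplicate plates.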

[2] = tested on: NCI-H322M
Summary of the method: as §1

[3] = tested on: HARA
Summary of the method: as §1

[4] = tested on: LXF-289
Summary of the method: as §1

[5] = tested on: PC-3 [JPC-3]
Summary of the method: as §1

[6] = tested on: NCI-H2126
Summary of the method: as §1

[7] = tested on: NCI-H2170
Summary of the method: as §1

[8] = tested on: NCI-H23
Summary of the method: as §1

[9] = tested on: NCI-H1915
Summary of the method: as §1

[10] = tested on: NCI-H1666
Summary of the method: as §1

[11] = tested on: LCLC-97TM1
Summary of the method: as §1

[12] = tested on: SK-LU-1
Summary of the method: as §1

[13] = tested on: BEN
Summary of the method: as §1

[14] = tested on: NCI-H441
Summary of the method: as §1

[15] = tested on: NCI-H1755
Summary of the method: as §1

[16] = tested on: NCI-H650
Summary of the method: as §1

[17] = tested on: A-427
Summary of the method: as §1

[18] = tested on: NCI-H2023
Summary of the method: as §1

[19] = tested on: NCI-H1944
Summary of the method: as §1

[20] = tested on: NCI-H460
Summary of the method: as §1

[21] = tested on: NCI-H1395
Summary of the method: as §1

[22] = tested on: LU99A
Summary of the method: as §1

[23] = tested on: LOU-NH91
Summary of the method: as §1

## Cc1cnc(-c2cnc(NCCNc3ccc(C#N)cn3)nc2-c2ccc(Cl)cc2Cl)[nH]1 + CC(=O)Nc1cccc(-n2c(=O)n(C3CC3)c(=O)c3c(Nc4ccc(I)cc4F)n(C)c(=O)c(C)c32)c1 [Trametinib] (partner 0.02 µM)
[1]; first compound 0.08 µM
  relative viability: 0.462
[1]; first compound 0.253 µM
  relative viability: 0.45
[1]; first compound 0.8 µM
  relative viability: 0.422
[1]; first compound 2.53 µM
  relative viability: 0.403
[2]; first compound 0.08 µM
  relative viability: 0.563
[2]; first compound 0.253 µM
  relative viability: 0.558
[2]; first compound 0.8 µM
  relative viability: 0.468
[2]; first compound 2.53 µM
  relative viability: 0.516
[3]; first compound 0.08 µM
  relative viability: 0.746
[3]; first compound 0.253 µM
  relative viability: 0.68
[3]; first compound 0.8 µM
  relative viability: 0.623
[3]; first compound 2.53 µM
  relative viability: 0.708
[4]; first compound 0.08 µM
  relative viability: 0.704
[4]; first compound 0.253 µM
  relative viability: 0.6
[4]; first compound 0.8 µM
  relative viability: 0.674
[4]; first compound 2.53 µM
  relative viability: 0.69
[5]; first compound 0.08 µM
  relative viability: 0.75
[5]; first compound 0.253 µM
  relative viability: 0.646
[5]; first compound 0.8 µM
  relative viability: 0.774
[5]; first compound 2.53 µM
  relative viability: 0.703
[6]; first compound 0.08 µM
  relative viability: 0.58
[6]; first compound 0.253 µM
  relative viability: 0.546
[6]; first compound 0.8 µM
  relative viability: 0.564
[6]; first compound 2.53 µM
  relative viability: 0.546
[7]; first compound 0.08 µM
  relative viability: 1.02
[7]; first compound 0.8 µM
  relative viability: 0.929
[7]; first compound 2.53 µM
  relative viability: 0.788
[8]; first compound 0.08 µM
  relative viability: 0.412
[8]; first compound 0.253 µM
  relative viability: 0.339
[8]; first compound 0.8 µM
  relative viability: 0.451
[8]; first compound 2.53 µM
  relative viability: 0.882
[9]; first compound 0.08 µM
  relative viability: 0.308
[9]; first compound 0.8 µM
  relative viability: 0.29
[9]; first compound 2.53 µM
  relative viability: 0.299
[10]; first compound 0.08 µM
  relative viability: 0.864
[10]; first compound 0.253 µM
  relative viability: 0.797
[10]; first compound 0.8 µM
  relative viability: 0.957
[10]; first compound 2.53 µM
  relative viability: 0.821
[11]; first compound 0.08 µM
  relative viability: 0.201
[11]; first compound 0.253 µM
  relative viability: 0.193
[11]; first compound 0.8 µM
  relative viability: 0.18
[11]; first compound 2.53 µM
  relative viability: 0.214
[12]; first compound 0.08 µM
  relative viability: 0.489
[12]; first compound 0.253 µM
  relative viability: 0.61
[12]; first compound 0.8 µM
  relative viability: 0.563
[12]; first compound 2.53 µM
  relative viability: 0.707
[13]; first compound 0.08 µM
  relative viability: 1.25
[13]; first compound 0.253 µM
  relative viability: 0.879
[13]; first compound 0.8 µM
  relative viability: 1.04
[13]; first compound 2.53 µM
  relative viability: 1.42
[14]; first compound 0.08 µM
  relative viability: 0.561
[14]; first compound 0.8 µM
  relative viability: 0.443
[14]; first compound 2.53 µM
  relative viability: 0.372
[15]; first compound 0.08 µM
  relative viability: 0.865
[15]; first compound 0.253 µM
  relative viability: 0.755
[15]; first compound 0.8 µM
  relative viability: 0.771
[15]; first compound 2.53 µM
  relative viability: 0.771
[16]; first compound 0.08 µM
  relative viability: 1.17
[16]; first compound 0.253 µM
  relative viability: 0.989
[16]; first compound 0.8 µM
  relative viability: 1.29
[16]; first compound 2.53 µM
  relative viability: 0.988
[17]; first compound 0.08 µM
  relative viability: 0.814
[17]; first compound 0.253 µM
  relative viability: 0.792
[17]; first compound 0.8 µM
  relative viability: 0.827
[17]; first compound 2.53 µM
  relative viability: 0.837
[18]; first compound 0.08 µM
  relative viability: 0.647
[18]; first compound 0.253 µM
  relative viability: 0.537
[18]; first compound 0.8 µM
  relative viability: 0.712
[18]; first compound 2.53 µM
  relative viability: 0.798
[19]; first compound 0.08 µM
  relative viability: 0.423
[19]; first compound 0.8 µM
  relative viability: 0.463
[19]; first compound 2.53 µM
  relative viability: 0.371
[20]; first compound 0.08 µM
  relative viability: 0.225
[20]; first compound 0.253 µM
  relative viability: 0.121
[20]; first compound 0.8 µM
  relative viability: 0.107
[20]; first compound 2.53 µM
  relative viability: 0.195
[21]; first compound 0.08 µM
  relative viability: 1.22
[21]; first compound 0.253 µM
  relative viability: 0.715
[21]; first compound 0.8 µM
  relative viability: 1.03
[21]; first compound 2.53 µM
  relative viability: 0.924
[22]; first compound 0.08 µM
  relative viability: 0.549
[22]; first compound 0.253 µM
  relative viability: 0.556
[22]; first compound 0.8 µM
  relative viability: 0.53
[22]; first compound 2.53 µM
  relative viability: 0.534
[23]; first compound 0.08 µM
  relative viability: 0.799
[23]; first compound 0.253 µM
  relative viability: 0.84
[23]; first compound 0.8 µM
  relative viability: 0.843
[23]; first compound 2.53 µM
  relative viability: 0.856
